Experimental data taken from patent US7915292B2, “Antibacterial quinoline derivatives” (Janssen Pharmaceutica NV, priority 2005, dated 2011).
Values after ≈ are worked out from the molar mass of the structure shown.

Tests used:
[1] = system: Mycobacterium tuberculosis (strain H37RV); assay: In-vitro method for testing compounds against M. tuberculosis (resazurin growth inhibition); format: cell-based; details: Mycobacterium tuberculosis, 168 h, 7 days incubation, read-out: M. tuberculosis pIC50 (converted)
M. Smegmatis ATCC607 = assay: In-vitro anti-bacterial activity against strain M. smegmatis ATCC607 (Alamar Blue growth inhibition); format: cell-based; details: 48 hours incubation; for IC50: Mycolicibacterium smegmatis, read-out: M. smegmatis pIC50 (converted)
Method: Serial five-fold dilutions (45 μl in 180 μl) were made directly in the microtiter plates from column 2 to 11 using a customised robot system (Zymark Corp., Hopkinton, Mass.). Pipette tips were changed after every 3 dilutions to minimize pipetting errors with high hydrophobic compounds. Untreated control samples with (column 1) and without (column 12) inoculum were included in each microtiter plate. Approximately 250 CFU per well of bacteria inoculum, in a volume of 100 μl in 2.8× Mueller-Hinton broth medium, was added to the rows […]. The same volume of broth medium without inoculum was added to column 12 in row A to H. The cultures were incubated at 37° C. for 48 hours in a humidified 5% CO2 atmosphere (incubator with open air valve and continuous ventilation). At the end of incubation, two days after inoculation, the bacterial growth was quantitated fluorometrically. Therefore Alamar Blue (10×) was added to all wells in a volume of 20 μl and plates were incubated for another 2 hours at […] The fluorescence was read in a computer-controlled fluorometer (Cytofluor, Biosearch) at an excitation wavelength of 530 nm and an emission wavelength of 590 nm (gain 30). The percentage growth inhibition achieved by the compounds was calculated according to standard methods and expressed as pIC50 values.

ECO 25922 = assay: Microtitre plate assay, IC90 determination, ECO 25922; format: cell-based, E. coli; details: 90% inhibitory concentration for bacterial growth, strain ECO 25922, 24 hours at 37° C.; for IC90: Escherichia coli, read-out: IC90 (μg/ml) ECO 25922
Method: (§1) Stocks (0.5 ml/tube) were stored at -70° C. until use. Bacteria titrations were performed in microtiter plates to detect the TCID50, in which the TCID50 represents the dilution that gives rise to bacterial growth in 50% of inoculated cultures. In general, an inoculum level of approximately 100 TCID50 was used for susceptibility testing. […] Serial five-fold dilutions (45 μl in 180 μl) were made directly in the microtiter plates from column 2 to reach column 11. Untreated control samples with (column 1) and without (column 12) inoculum were included in each microtiter plate. Depending on the bacteria type, approximately 10 to 60 CFU per well of bacteria inoculum (100 TCID50), in a volume of 100 μl in 2.8× Mueller-Hinton broth medium, was added to the rows […]. The same volume of broth medium without inoculum was added to column 12 in row A to H. The cultures were incubated at 37° C. for 24 hours under a normal atmosphere (incubator with open air valve and continuous ventilation). At the end of incubation, one day after inoculation, the bacterial growth was quantitated fluorometrically. Therefore resazurin (0.6 mg/ml) was added in a volume of 20 μl to all wells 3 hours after inoculation, and the plates were re-incubated overnight. A change in colour from blue to pink indicated the growth of bacteria. The fluorescence was read in a computer-controlled fluorometer (Cytofluor Biosearch) at an excitation wavelength of 530 nm and an emission wavelength of 590 nm. The % growth inhibition achieved by the compounds was calculated according to standard methods. The IC90 (expressed in μg/ml) was defined as the 90% inhibitory concentration for bacterial growth.

EFA 29212 = assay: Microtitre plate assay, IC90 determination, EFA 29212; format: cell-based, E. faecalis; details: Enterococcus faecalis; 90% inhibitory concentration for bacterial growth; strain EFA 29212; 24 hours at 37° C.; read-out: IC90 (μg/ml) EFA 29212
Method: as §1

LMO 49594 = assay: Microtitre plate assay, IC90 determination, LMO 49594; format: cell-based, Listeria monocytogenes; details: Listeria monocytogenes; 90% inhibitory concentration for bacterial growth; strain LMO 49594; 24 hours at 37° C.; read-out: IC90 (μg/ml) LMO 49594
Method: as §1

BSU 43639 = assay: Microtitre plate assay, IC90 determination, BSU 43639; format: cell-based, Bacillus subtilis; details: Bacillus subtilis; 90% inhibitory concentration for bacterial growth; strain BSU 43639; 24 hours at 37° C.; read-out: IC90 (μg/ml) BSU 43639
Method: as §1

SMU 33402 = assay: Microtitre plate assay, IC90 determination, SMU 33402; format: cell-based, S. mutans; details: Streptococcus mutans; 90% inhibitory concentration for bacterial growth; strain SMU 33402; 24 hours at 37° C.; read-out: IC90 (μg/ml) SMU 33402
Method: as §1

STA 43300 = assay: Microtitre plate assay, IC90 determination, STA 43300; format: cell-based, S. aureus; details: Staphylococcus aureus; 90% inhibitory concentration for bacterial growth; strain STA 43300; 24 hours at 37° C.; read-out: IC90 (μg/ml) STA 43300
Method: as §1, with “Therefore resazurin (0.6 mg/ml) was added in a volume of 20 μl to all wells 3 hours after inoculation, and the plates were re-incubated overnight. A change in colour from blue to pink indicated the growth of bacteria.” left out, “The IC90 (expressed in μg/ml) was defined as the 90% inhibitory concentration for bacterial growth.” left out

STA 25923 = assay: Microtitre plate assay, IC90 determination, STA 25923; format: cell-based, S. aureus; details: Staphylococcus aureus; 90% inhibitory concentration for bacterial growth; strain STA 25923; 24 hours at 37° C.; read-out: IC90 (μg/ml) STA 25923
Method: as §1

STA 29213 = assay: Microtitre plate assay, IC90 determination, STA 29213; format: cell-based, S. aureus; details: 90% inhibitory concentration for bacterial growth, strain STA 29213, 24 hours at 37° C.; for IC90: Staphylococcus aureus, read-out: IC90 (μg/ml) STA 29213
Method: as §1

PAE 27853 = assay: Microtitre plate assay, IC90 determination, PAE 27853; format: cell-based, Pseudomonas aeruginosa; details: Pseudomonas aeruginosa; 90% inhibitory concentration for bacterial growth; strain PAE 27853; 24 hours at 37° C.; read-out: IC90 (μg/ml) PAE 27853
Method: as §1

SPN 6305 = assay: Microtitre plate assay, IC90 determination, SPN 6305; format: cell-based, S. pneumoniae; details: 90% inhibitory concentration for bacterial growth, strain SPN 6305, 24 hours at 37° C.
Method: as §1

SPY 8668 = assay: Microtitre plate assay, IC90 determination, SPY 8668; format: cell-based, S. pyogens; details: 90% inhibitory concentration for bacterial growth; strain SPY 8668; 24 hours at 37° C.; read-out: IC90 (μg/ml) SPY 8668
Method: as §1

STA RMETH = assay: Microtitre plate assay, IC90 determination, STA RMETH; format: cell-based, S. aureus; details: Staphylococcus aureus; 90% inhibitory concentration for bacterial growth; strain STA RMETH; 24 hours at 37° C.; read-out: IC90 (μg/ml) STA RMETH
Method: as §1

| SMILES | IC50 (M. Smegmatis ATCC607) | IC90 (ECO 25922) | IC90 (LMO 49594) | IC90 (SMU 33402) | IC90 (STA 25923) | IC90 (STA 29213) | also measured |
| --- | --- | --- | --- | --- | --- | --- | --- |
| Cc1ccc2nc(-c3ccccc3)c(C(c3ccccc3)N(CC(=O)N3CCSCC3)Cc3ccccc3)cc2c1 (stereo not drawn) [Compound 70] | 251 nM | 14 µg/mL (≈ 25.1 µM) | 14 µg/mL (≈ 25.1 µM) | – | – | – | IC50 [1]: 3160 nM; IC90 (EFA 29212): 14 µg/mL (≈ 25.1 µM); melting point: 144 °C |
| Cc1ccc2nc(-c3ccccc3)c(C(c3ccccc3)N(CC(=O)N3CCN(C)CC3)Cc3ccccc3)cc2c1 (stereo not drawn) [Compound 72] | 1580 nM | 55.5 µg/mL (≈ 100 µM) | 11.1 µg/mL (≈ 20 µM) | 13.9 µg/mL (≈ 25.1 µM) | 11.1 µg/mL (≈ 20 µM) | 11.1 µg/mL (≈ 20 µM) | IC90 (BSU 43639): 8.8 µg/mL (≈ 15.9 µM); IC90 (STA 43300): 11.1 µg/mL (≈ 20 µM) |
| COc1nc2ccc(Br)cc2cc1C(c1ccccc1)N(CC(=O)N1CCN(C)CC1)Cc1ccccc1 (stereo not drawn) [Compound 104] | 1580 nM | 14.4 µg/mL (≈ 25.1 µM) | – | 11.4 µg/mL (≈ 19.9 µM) | 12.8 µg/mL (≈ 22.3 µM) | 11.4 µg/mL (≈ 19.9 µM) | IC90 (BSU 43639): 12.8 µg/mL (≈ 22.3 µM); IC90 (PAE 27853): 14.4 µg/mL (≈ 25.1 µM); IC90 (SPN 6305; Streptococcus pneumoniae, read-out: IC90 (μg/ml) SPN 6305): 14.4 µg/mL (≈ 25.1 µM); IC90 (SPY 8668): 11.4 µg/mL (≈ 19.9 µM); IC90 (STA RMETH): 12.8 µg/mL (≈ 22.3 µM); melting point: 152 °C |
| COc1nc2ccc(Br)cc2cc1C(c1ccccc1)N(CC(=O)N1CCOCC1)Cc1ccccc1 (stereo not drawn) [Compound 112] | – | – | – | – | – | – | M. smegmatis pIC50 (M. Smegmatis ATCC607): 5.8; IC90 (μg/ml) STA 29213 (STA 29213): 14.1 µg/mL (≈ 25.2 µM) |
| COc1nc2ccc(Br)cc2cc1C(c1ccccc1)N(CC(=O)N1CCN(C)CC1)Cc1cccc2ncccc12 (stereo not drawn) [Compound 114] | 20000 nM | 62.5 µg/mL (≈ 100 µM) | 49.6 µg/mL (≈ 79.4 µM) | 15.7 µg/mL (≈ 25.1 µM) | – | 12.5 µg/mL (≈ 20 µM) | IC90 (EFA 29212): 12.5 µg/mL (≈ 20 µM); IC90 (STA 43300): 12.5 µg/mL (≈ 20 µM) |
| COc1nc2ccc(C#N)cc2cc1C(c1ccccc1)N(CC(=O)N1CCN(C)CC1)Cc1ccccc1 (stereo not drawn) [Compound 123] | – | – | – | – | – | – | M. smegmatis pIC50 (M. Smegmatis ATCC607): 5.2; IC90 (μg/ml) ECO 25922 (ECO 25922): 13.1 µg/mL (≈ 25.2 µM); IC90 (μg/ml) SPN 6305 (SPN 6305): 13.1 µg/mL (≈ 25.2 µM) |
| CCOC(=O)CN(Cc1ccccc1)C(c1ccccc1)c1cc2cc(Br)ccc2nc1OC (stereo not drawn) [Compound 137] | – | 13 µg/mL (≈ 25 µM) | – | – | 11.6 µg/mL (≈ 22.3 µM) | – | – |
